Several values for one entry are separate records, joined by “and”; a condition that tells them apart may be missing. Equal entries are not always repeated.
Test system: DOHH2 cells
Assay: RT2 Glucocorticoid signaling PCR array, DOHH2 cell line (Table 4b)
Type: cell-based
Conditions: DOHH2, 4 days

C[C@]12C=CC(=O)C=C1CC[C@@H]1[C@@H]2[C@@H](O)C[C@@]2(C)[C@H]1CC[C@]2(O)C(=O)CO [Prednisolone, prednisolone]
ACTB Ct Values: 14.721 | ADARB1 Ct Values: 33.560 | AFF1 Ct Values: 23.992 | AK2 Ct Values: 20.262 | AMPD3 Ct Values: 27.535 | ANGPTL4 Ct Values: 31.538 | ANXA4 Ct Values: 24.997 | ARID68 Ct Values: 23.885 | ASPH Ct Values: 23.369 | ATF4 Ct Values: 19.313 | B2M Ct Values: 18.884 | BCL6 Ct Values: 21.801 | BMPER Ct Values: 39.378 | CEBPA Ct Values: 32.188 | CEBPB Ct Values: 24.317 | COL4A2 Ct Values: 38.993 | CREB1 Ct Values: 22.890 | CREB3 Ct Values: 24.865 | CREB3L4 Ct Values: 24.616 | CTGF Ct Values: 33.728 | CYB561 Ct Values: 39.582 | DDIT4 Ct Values: 24.105 | DUSP1 Ct Values: 27.866 | EDN1 Ct Values: 32.263 | EHD3 Ct Values: 31.098 | ERRFI1 Ct Values: 32.635 | FK8PS Ct Values: 20.912 | FOSL2 Ct Values: 31.543 | GAPDH Ct Values: 16.551 | GDPD1 Ct Values: 27.884 | GHRHR Ct Values: 36.095 | GLUL Ct Values: 34.574 | GOT1 Ct Values: 23.532 | H6PD Ct Values: 24.696 | HNRPLL Ct Values: 33.284 | HPRT1 Ct Values: 21.777 | IL1RN Ct Values: 33.560 | IL6 Ct Values: 34.758 | KLF9 Ct Values: 28.547 | KLF13 Ct Values: 22.546 | LOX Ct Values: 34.158 | MERTK Ct Values: 32.892 | NFKBIA Ct Values: 22.830 | NR3C1 Ct Values: 22.794 | PDCD7 Ct Values: 23.552 | PDGFRB Ct Values: 34.934 | PDP1 Ct Values: 25.682 | PER1 Ct Values: 25.142 | PER2 Ct Values: 24.159 | PIK3R1 Ct Values: 23.850 | PLD1 Ct Values: 37.120 | PLEKHF1 Ct Values: 29.414 | POU2F1 Ct Values: 24.648 | POU2F2 Ct Values: 22.489 | RASA3 Ct Values: 27.803 | RGS2 Ct Values: 25.514 | RHOB Ct Values: 33.162 | RPLP0 Ct Values: 15.128 | SESN1 Ct Values: 22.839 | SGK1 Ct Values: 29.628 | SLC10A6 Ct Values: 36.176 | SLC19A2 Ct Values: 25.455 | SLC22A5 Ct Values: 28.915 | SNTA1 Ct Values: 25.124 | SPHK1 Ct Values: 29.971 | SPSB1 Ct Values: 26.911 | STAT5A Ct Values: 23.565 | STAT5B Ct Values: 22.632 | TBL1XR1 Ct Values: 21.304 | TNF Ct Values: 31.956 | TSC22D3 Ct Values: 23.310 | USP2 Ct Values: 23.501 | USPS4 Ct Values: 26.683 | VDR Ct Values: 26.847 | VLDLR Ct Values: 28.584 | ZFP36 Ct Values: 24.270 | ZHX3 Ct Values: 24.418 | ZNF281 Ct Values: 23.828 | PPC Ct Values (array control, three lines): 18.684 and 18.699 and 19.076 | RTC Ct Values (array control, three lines): 21.449 and 21.464 and 21.483 | ADARB1 ΔCT (B2M) (normalized to B2M): 14.676 | AFF1 ΔCT (B2M) (normalized to B2M): 5.108 | AK2 ΔCT (B2M) (normalized to B2M): 1.378 | AMPD3 ΔCT (B2M) (normalized to B2M): 8.651 | ANGPTL4 ΔCT (B2M) (normalized to B2M): 12.654 | ANXA4 ΔCT (B2M) (normalized to B2M): 6.113 | ARID68 ΔCT (B2M) (normalized to B2M): 5.001 | ASPH ΔCT (B2M) (normalized to B2M): 4.485 | ATF4 ΔCT (B2M) (normalized to B2M): 0.429 | B2M ΔCT (B2M) (normalized to B2M): 0.000 | BCL6 ΔCT (B2M) (normalized to B2M): 2.917 | BMPER ΔCT (B2M) (normalized to B2M): 20.494 | CEBPA ΔCT (B2M) (normalized to B2M): 13.304 | CEBPB ΔCT (B2M) (normalized to B2M): 5.433 | COL4A2 ΔCT (B2M) (normalized to B2M): 20.109 | CREB1 ΔCT (B2M) (normalized to B2M): 4.006 | CREB3L4 ΔCT (B2M) (normalized to B2M): 5.732 | CREB3 ΔCT (B2M) (normalized to B2M): 5.981 | CTGF ΔCT (B2M) (normalized to B2M): 14.844 | CYB561 ΔCT (B2M) (normalized to B2M): 20.698 | DDIT4 ΔCT (B2M) (normalized to B2M): 5.221 | DUSP1 ΔCT (B2M) (normalized to B2M): 8.982 | EDN1 ΔCT (B2M) (normalized to B2M): 13.379 | EHD3 ΔCT (B2M) (normalized to B2M): 12.214 | ERRFI1 ΔCT (B2M) (normalized to B2M): 13.751 | FK8PS ΔCT (B2M) (normalized to B2M): 2.028 | FOSL2 ΔCT (B2M) (normalized to B2M): 12.659 | GAPDH ΔCT (B2M) (normalized to B2M): −2.333 | GDPD1 ΔCT (B2M) (normalized to B2M): 9.000 | GHRHR ΔCT (B2M) (normalized to B2M): 17.211 | GLUL ΔCT (B2M) (normalized to B2M): 15.690 | GOT1 ΔCT (B2M) (normalized to B2M): 4.648 | H6PD ΔCT (B2M) (normalized to B2M): 6.085 | HNRPLL ΔCT (B2M) (normalized to B2M): 14.400 | HPRT1 ΔCT (B2M) (normalized to B2M): 2.893 | IL1RN ΔCT (B2M) (normalized to B2M): 14.676 | IL6 ΔCT (B2M) (normalized to B2M): 19.457 | KLF9 ΔCT (B2M) (normalized to B2M): 9.663 | KLF13 ΔCT (B2M) (normalized to B2M): 3.662 | LOX ΔCT (B2M) (normalized to B2M): 15.274 | MERTK ΔCT (B2M) (normalized to B2M): 14.008 | NFKBIA ΔCT (B2M) (normalized to B2M): 3.946 | NR3C1 ΔCT (B2M) (normalized to B2M): 3.910 | PDCD7 ΔCT (B2M) (normalized to B2M): 4.668 | PDGFRB ΔCT (B2M) (normalized to B2M): 16.050 | PDP1 ΔCT (B2M) (normalized to B2M): 6.798 | PER1 ΔCT (B2M) (normalized to B2M): 6.258 | PER2 ΔCT (B2M) (normalized to B2M): 5.275 | PIK3R1 ΔCT (B2M) (normalized to B2M): 4.966 | PLD1 ΔCT (B2M) (normalized to B2M): 18.236 | PLEKHF1 ΔCT (B2M) (normalized to B2M): 10.530 | POU2F1 ΔCT (B2M) (normalized to B2M): 5.764 | POU2F2 ΔCT (B2M) (normalized to B2M): 3.605 | RASA3 ΔCT (B2M) (normalized to B2M): 8.919 | RGS2 ΔCT (B2M) (normalized to B2M): 6.630 | RHOB ΔCT (B2M) (normalized to B2M): 14.278 | RPLP0 ΔCT (B2M) (normalized to B2M): −3.756 | SESN1 ΔCT (B2M) (normalized to B2M): 3.955 | SGK1 ΔCT (B2M) (normalized to B2M): 10.744 | SLC10A6 ΔCT (B2M) (normalized to B2M): 17.292 | SLC19A2 ΔCT (B2M) (normalized to B2M): 6.571 | SLC22A5 ΔCT (B2M) (normalized to B2M): 10.031 | SNTA1 ΔCT (B2M) (normalized to B2M): 6.240 | SPHK1 ΔCT (B2M) (normalized to B2M): 11.087 | SPSB1 ΔCT (B2M) (normalized to B2M): 8.027 | STAT5A ΔCT (B2M) (normalized to B2M): 5.001 | STAT5B ΔCT (B2M) (normalized to B2M): 3.748 | TBL1XR1 ΔCT (B2M) (normalized to B2M): 2.420 | TNF ΔCT (B2M) (normalized to B2M): 13.072 | TSC22D3 ΔCT (B2M) (normalized to B2M): 4.426 | USP2 ΔCT (B2M) (normalized to B2M): 4.617 | USPS4 ΔCT (B2M) (normalized to B2M): 7.799 | VDR ΔCT (B2M) (normalized to B2M): 7.963 | VLDLR ΔCT (B2M) (normalized to B2M): 9.700 | ZFP36 ΔCT (B2M) (normalized to B2M): 5.386 | ZHX3 ΔCT (B2M) (normalized to B2M): 5.534 | ZNF281 ΔCT (B2M) (normalized to B2M): 4.944 | RTC ΔCT (B2M) (normalized to B2M, array control, three lines): 2.565 and 2.580 and 2.599 | ADARB1 ΔΔCT (vs DMSO): 1.867 | AFF1 ΔΔCT (vs DMSO): −0.567 | AK2 ΔΔCT (vs DMSO): 0.053 | AMPD3 ΔΔCT (vs DMSO): 1.259 | ANGPTL4 ΔΔCT (vs DMSO): 0.529 | ANXA4 ΔΔCT (vs DMSO): 0.305 | ARID68 ΔΔCT (vs DMSO): 0.129 | ASPH ΔΔCT (vs DMSO): 0.524 | ATF4 ΔΔCT (vs DMSO): 0.282 | BCL6 ΔΔCT (vs DMSO): 0.397 | BMPER ΔΔCT (vs DMSO): 1.466 | CEBPA ΔΔCT (vs DMSO): −2.341 | CEBPB ΔΔCT (vs DMSO): 0.531 | COL4A2 ΔΔCT (vs DMSO): 6.804 | CREB1 ΔΔCT (vs DMSO): 0.085 | CREB3L4 ΔΔCT (vs DMSO): 0.336 | CREB3 ΔΔCT (vs DMSO): 0.061 | CTGF ΔΔCT (vs DMSO): 0.142 | CYB561 ΔΔCT (vs DMSO): 1.917 | DDIT4 ΔΔCT (vs DMSO): 0.296 | DUSP1 ΔΔCT (vs DMSO): 0.387 | EDN1 ΔΔCT (vs DMSO): 1.155 | EHD3 ΔΔCT (vs DMSO): −1.092 | ERRFI1 ΔΔCT (vs DMSO): 0.235 | FK8PS ΔΔCT (vs DMSO): −0.948 | FOSL2 ΔΔCT (vs DMSO): −0.099 | GDPD1 ΔΔCT (vs DMSO): 0.477 | GHRHR ΔΔCT (vs DMSO): −1.464 | GLUL ΔΔCT (vs DMSO): −1.434 | GOT1 ΔΔCT (vs DMSO): 0.230 | H6PD ΔΔCT (vs DMSO): 0.377 | HNRPLL ΔΔCT (vs DMSO): 3.085 | KLF9 ΔΔCT (vs DMSO): −0.019 | KLF13 ΔΔCT (vs DMSO): −0.280 | LOX ΔΔCT (vs DMSO): 0.721 | MERTK ΔΔCT (vs DMSO): 0.020 | NFKBIA ΔΔCT (vs DMSO): 0.064 | NR3C1 ΔΔCT (vs DMSO): 0.317 | PDCD7 ΔΔCT (vs DMSO): 0.021 | PDP1 ΔΔCT (vs DMSO): −0.056 | PER1 ΔΔCT (vs DMSO): 0.323 | PER2 ΔΔCT (vs DMSO): −0.358 | PIK3R1 ΔΔCT (vs DMSO): −0.202 | PLD1 ΔΔCT (vs DMSO): 0.207 | PLEKHF1 ΔΔCT (vs DMSO): −0.347 | POU2F1 ΔΔCT (vs DMSO): 0.395 | POU2F2 ΔΔCT (vs DMSO): 0.145 | RASA3 ΔΔCT (vs DMSO): 0.776 | RGS2 ΔΔCT (vs DMSO): 0.849 | RHOB ΔΔCT (vs DMSO): 0.626 | SESN1 ΔΔCT (vs DMSO): −1.262 | SGK1 ΔΔCT (vs DMSO): 2.120 | SLC10A6 ΔΔCT (vs DMSO): 1.818 | SLC19A2 ΔΔCT (vs DMSO): −0.020 | SLC22A5 ΔΔCT (vs DMSO): 0.648 | SNTA1 ΔΔCT (vs DMSO): 0.665 | SPHK1 ΔΔCT (vs DMSO): −0.581 | SPSB1 ΔΔCT (vs DMSO): −0.074 | STAT5A ΔΔCT (vs DMSO): −0.227 | STAT5B ΔΔCT (vs DMSO): 0.254 | TBL1XR1 ΔΔCT (vs DMSO): 0.032 | TNF ΔΔCT (vs DMSO): 0.753 | TSC22D3 ΔΔCT (vs DMSO): −1.741 | USP2 ΔΔCT (vs DMSO): −0.478 | USPS4 ΔΔCT (vs DMSO): 0.209 | VDR ΔΔCT (vs DMSO): −0.434 | VLDLR ΔΔCT (vs DMSO): 1.543 | ZFP36 ΔΔCT (vs DMSO): 0.225 | ZHX3 ΔΔCT (vs DMSO): −0.657 | ZNF281 ΔΔCT (vs DMSO): −0.113
